Data on four compounds can be found in patent US8853261B2, “Nutraceutical composition from Garcinia mangostana” (Laila Nutraceuticals, priority 2008, dated 2014).

One experiment has as its target potato 5-lipoxygenase. The experiment in a line: 5-Lipoxygenase enzyme inhibitory activity. The following applies: for 5-Lipoxygenase inhibitory activity IC50 values: potato 5-lipoxygenase, linoleic acid substrate. It is filed as biochemical. The procedure: 5-Lipoxygenase enzyme inhibitory activity was measured using the method of Schewe et al. (Adv Enzymol, Vol 58: pp 191-272, 1986), modified by Reddanna et. al., (Methods of Enzymology, Vol 187: pp 268-277, 1990). The assay mixture contained 80 μM linoleic acid and sufficient amount of potato 5-lipoxygenase in 50 mM phosphate buffer (pH 6.3). The reaction was initiated by the addition of enzyme buffer mix to linoleic acid and the enzyme activity was monitored as the increase in absorbance at 234 nm. The reaction was monitored for 120 sec and the inhibitory potential of the test substances was measured by incubating various concentrations of test substances two minutes before the addition of linoleic acid. All assays were performed three times. The IC50 values were calculated from the plot drawn of the concentrations of test substances versus percentage inhibition.

The test system of experiment [1] is adipocyte fatty acid-binding protein (aP2). The experiment in a line: Down-regulation of aP2 protein expression in LPS-induced THP-1 derived macrophages (Western blot). It is filed as cell-based, human. The note with it: 5 μg/ml, 2 h pretreatment, LPS 100 ng/ml 16 h, normalized to actin. As to the method: The inventors also assessed the effect of α-mangostin and γ-mangostin on adipocyte fatty acid-binding protein aP2 expression in human monocytes-macrophage cells in a cell based in vitro model. In this experiment, THP-1 human monocyte-macrophage cells were pre-treated with 5 μg/ml of γ-mangostin or α-mangostin for 2 h and thereafter primed with LPS to induce the inflammatory response. The cellular proteins were extracted by cell lysis buffer and subjected to immuno-western blot to detect the modulation of expression of aP2 protein.
Down-regulation of aP2 protein expression by α-mangostin and γ-mangostin was evaluated in a cell based in vitro model. […] The protein content was measured by Coomassie blue based Bradford method and equal amount of cellular protein lysates (2 μg) was resolved in 15% SDS-Polyacrylamide gels. […] The aP2 protein expression was specifically detected by chemiluminescent substrate (Pierce, USA); detection of chemiluminescent bands and densitometric analyses were carried out on Kodak 4000 mM image station (supplied by Kodak, USA). The same nitrocellulose blots were stripped and re-probed with anti-actin antibody (Sigma Chemical CO, USA) and actin protein expression was recorded as an indication of equal protein loading in each lane. […]

In another experiment the test system is TNF-α. The experiment in a line: Inhibition of LPS-induced TNF-α in THP-1 human monocytes (EIA). It counts as cell-based. The following applies: THP-1 cells, 2 h pretreatment, 100 ng/ml LPS 4 h. As to the method: Inhibition of Tumor necrosis factor-α (TNF-α) in vitro by α-mangostin and γ-mangostin: The anti-inflammatory activities of α-mangostin, γ-mangostin and composition-I were assessed in a cell based in vitro assay. Briefly, THP-1 human monocytes cells were washed and re-suspended in phenol red free Dulbecco's Modified Eagle's Medium (DMEM) supplemented with 1% fetal Bovine serum (FBS). Equal number of cells was added to each well of a 96-well TC plate and the cells were pretreated for 2 h with various concentrations of test substances (ranging from 0.5 to 50 μg/ml; solutions prepared in culture medium from a stock solution containing 50 mg/l mL DMSO of each test compound) of α-mangostin, γ-mangostin and composition-I. The inflammatory response was induced by treatment with 100 ng/ml of LPS for 4 h at 37° C. in presence of 5% CO2. The vehicle control culture wells received 0.1% DMSO in culture medium. The cell culture supernatants were collected and assessed for secretary pro-inflammatory cytokine, TNFα. The TNF-α concentration was quantitatively measured by highly specific and sensitive Enzyme Immuno Assay (EIA) kit supplied by R&D Systems, USA. The enzyme immuno assay was performed based on the protocol provided by the vendor. The inhibitory concentration for 50% inhibition (IC50) of TNF-α was determined from a plot drawn for ingredient concentration against TNF-α level.

Several values for one entry are separate records, joined by “and”; a condition that tells them apart may be missing. Equal entries are not always repeated. Entries after “also recorded” stand apart in the source; their conditions may differ.

Regarding `COc1c(O)cc2oc3cc(O)c(CC=C(C)C)c(O)c3c(=O)c2c1CCC(C)(C)O` [Garcinone D], the “5-Lipoxygenase inhibitory activity IC50 values” on potato 5-lipoxygenase is 5.7 µg/mL.
Consider `COc1c(O)cc2oc3cc(O)c(CC=C(C)C)c(O)c3c(=O)c2c1CC=C(C)C` [α-mangostin], for which, in experiment [1], the “Inhibition of LPS induced aP2 protein expression” value is recorded as “inhibition of aP2 protein expression”.
For the compound `CC(C)=CCc1c(O)cc2oc3cc(O)c(O)c(CC=C(C)C)c3c(=O)c2c1O` [γ-mangostin], the “Inhibition of LPS induced aP2 protein expression” value in experiment [1] is “more potent inhibitor of aP2 in vitro compared to α-mangostin; also recorded: inhibited the LPS induced aP2 expression more strongly compared to α-mangostin”. Also, the “5-Lipoxygenase inhibitory activity IC50 values” at potato 5-lipoxygenase stood at 0.52 µg/mL. In the experiment on TNF-α, the “IC50 for TNFα” value is 3.32 µg/mL and 3.322 µg/mL.
Turning to Garcinone C, in the experiment with potato 5-lipoxygenase (comparison in words), the “Relative potency of O-demethylxanthone versus O-methyl counterpart” value is “relatively higher potency compared to its natural O-methyl counterpart, garcinone D”. Besides, the “5-Lipoxygenase inhibitory activity IC50 values” at potato 5-lipoxygenase came out at 2.8 µg/mL.
